Source: patent US6946459B2, “CRYSTALLINE FORMS OF 1S-[1ALPHA(2S*,3R*), 9ALPHA]6, 10-DIOXO-N-(2-ETHOXY-5-OXO-TETRAHYDRO-3-FURANYL)-9[[(1-ISOQUINOLYL) CARBONYL]AMINO]OCTAHYDRO-6H-PIRIDAZINO[1,2-A][1,2]DIAZEPIN-1-CARBOXAMIDE” (Aventis Pharma S. A., priority 1998, dated 2005)
“Also recorded” adds a separate entry of the source.

Experiments:
[1] = Hygroscopicity curve (water sorption isotherm), Dynamic Vapor Sorption DVS 1; assay type: physicochemical; parameters: Sorption / Desorption: unit not given here; conditions: for Hygroscopicity (in words): sorption cycle / general statement
Method: Hygroscopicity Curve (or Water Sorption Isotherm)
The water sorption isotherms were obtained using a Dynamic Vapor Sorption DVS 1 device (Surface Measurements System Ltd) at a constant temperature and under a more or less hydrated nitrogen atmosphere. The degree of relative humidity (RH) of the atmosphere was modified in stages. The passage from one stage to the next is carried out when the weight of the sample to be analyzed has reached a constant value.

[2] = Sample left 7 days in a chamber at 96% relative humidity (32° C.); assay type: physicochemical; conditions: 7 days at 96% relative humidity; for Hygroscopicity (in words): compared with form A
Method: The non-hygroscopicity was confirmed by leaving a sample for 7 days in a chamber at 96% relative humidity (at 32° C.) An absorption of water of approximately 0.15% was observed. […] The same situation pertains regarding the amorphous form.

[3] = RH 0.0 %, water sorption isotherm, constant temperature
[4] = RH 0.0 %, water sorption isotherm, constant temperature, water uptake (%)

Row | SMILES | Desorption [1, 3] | Sorption [1, 4] | Desorption ([1]; RH 12.0 %) | Sorption ([1]; RH 12.0 %) | Desorption ([1]; RH 21.0 %) | Sorption ([1]; RH 21.0 %) | Desorption ([1]; RH 32.0 %) | Sorption ([1]; RH 32.0 %) | Desorption ([1]; RH 43.0 %) | Sorption ([1]; RH 43.0 %) | Desorption ([1]; RH 51.0 %) | Sorption ([1]; RH 51.0 %) | Desorption ([1]; RH 57.0 %) | Sorption ([1]; RH 57.0 %) | Desorption ([1]; RH 66.0 %) | Sorption ([1]; RH 66.0 %) | Desorption ([1]; RH 75.0 %) | Sorption ([1]; RH 75.0 %) | Desorption ([1]; RH 80.0 %) | Sorption ([1]; RH 80.0 %) | further results
1 | CCO[C@@H]1OC(=O)C[C@@H]1NC(=O)[C@@H]1CCCN2C(=O)CC[C@H](NC(=O)c3nccc4ccccc34)C(=O)N12 [AMORPHOUS, 1S-[1alpha(2R, 3S), 9alpha]6, 10-dioxo-N-(2-ethoxy-5-oxo-tetrahydro-3-furanyl)-9[[(1-isoquinolyl)carbonyl]amino]octahydro-6H-pyridazino[1,2-a][1, 2]diazepin-1-carboxamide, reference compound] | −0.20 | 0.00 | 1.43 | 0.67 | 2.09 | 0.97 | 2.58 | 1.29 | 2.94 | 1.60 | 3.19 | 1.83 | 3.35 | 2.03 | 3.61 | 2.37 | 3.90 | 2.90 | 4.12 | 3.71 | Desorption ([1]; RH 90.0 %): 4.94; Sorption ([1]; RH 90.0 %): 5.11; Desorption ([1]; RH 96.0 %): 5.93; Sorption ([1]; RH 96.0 %): 5.93; Hygroscopicity (in words) ([1]; listed as Compound (I)): hygroscopic; Hygroscopicity (in words) [2]: more hygroscopic
2 | CCO[C@@H]1OC(=O)C[C@@H]1NC(=O)[C@@H]1CCCN2C(=O)CC[C@H](NC(=O)c3nccc4ccccc34)C(=O)N12 [form A] | 0.11 | 0.00 | 0.12 | 0.03 | 0.14 | 0.05 | 0.19 | 0.07 | 0.21 | 0.09 | 0.22 | 0.11 | 0.21 | 0.13 | 0.21 | 0.14 | 0.21 | 0.14 | 0.21 | 0.16 | Desorption ([1]; RH 90.0 %): 0.19; Sorption ([1]; RH 90.0 %): 0.14; Desorption ([1]; RH 96.0 %): 0.06; Sorption ([1]; RH 96.0 %): 0.06; Hygroscopicity (in words) [1]: absence of hygroscopicity; also recorded: not hygroscopic; Water uptake during the sorption cycle ([1]; whole sorption cycle, RH 0 to 96 %): < 0.2%; Absorption of water [2]: approximately 0.15%
3 | CCO[C@@H]1OC(=O)C[C@@H]1NC(=O)[C@@H]1CCCN2C(=O)CC[C@H](NC(=O)c3nccc4ccccc34)C(=O)N12 [form B, 1S-[1alpha (2R, 3S), 9alpha]6,10-dioxo-N-(2-ethoxy-5-oxo-tetrahydro-3-furanyl)-9[[(1-isoquinolyl)carbony]amino]octahydro-6H-pyridazino[1,2-a][1,2]diazepin-1-carboxamide] | −0.11 | 0.00 | 1.42 | 1.41 | 2.33 | 2.36 | 3.14 | 3.23 | 3.75 | 3.88 | 4.13 | 4.26 | 4.40 | 4.53 | 4.75 | 4.92 | 5.08 | 5.27 | 5.30 | 5.45 | Desorption ([1]; RH 90.0 %): 5.96; Sorption ([1]; RH 90.0 %): 5.93; Desorption ([1]; RH 96.0 %): 6.86; Sorption ([1]; RH 96.0 %): 6.86; Absorption of water [2]: 7%; Hygroscopicity (in words) [2]: more hygroscopic
